According to the CATMoS acute toxicity set (Mansouri et al. 2021):

Assay: GHS categories as the set defines them, by LD50: 1 up to 5, 2 up to 50, 3 up to 300, 4 up to 2000, 5 above 2000 mg/kg
Conditions: rat; in vivo; po

Structure (SMILES): CCOC(=O)Oc1c(OC)cc(C(=O)O[C@@H]2C[C@@H]3CN4CCc5c([nH]c6cc(OC)ccc56)[C@H]4C[C@@H]3[C@H](C(=O)OC)[C@H]2OC)cc1OC
- GHS category: 5

Structure (SMILES): CCCCCCCCCCCC(=O)OCC(COC(=O)CCCCCC)OC(=O)CCCCCCC (centres undefined)
- GHS category: 5

Structure (SMILES): CO/N=C(/C(=O)N[C@@H]1C(=O)N2C(C(=O)O)=C(CSc3cnns3)CS[C@H]12)c1csc(N)n1
- GHS category: 5

Structure (SMILES): O=CCCc1ccccc1
- GHS category: 5

Structure (SMILES): Clc1ccc(N/C(=N/C2CCCCC2)c2ccccc2)c(Cl)c1
- GHS category: 5

Structure (SMILES): CC(CCC(=O)NCCS(=O)(=O)O)C1CCC2C3C(O)CC4CC(O)CCC4(C)C3CCC12C (centres undefined)
- GHS category: 5

Structure (SMILES): COc1ccc(OC)c(C=O)c1
- GHS category: 5

Structure (SMILES): CCOC(=O)CCN(C(=O)c1ccc2c(c1)nc(CCl)n2C)c1ccccn1
- GHS category: 4

Structure (SMILES): O=C1COc2cc(C(=O)c3ccccc3)ccc2N1
- GHS category: 5

Structure (SMILES): O=C(CCS)OCC(COC(=O)CCS)(COC(=O)CCS)COC(=O)CCS
- GHS category: 4

Structure (SMILES): CC(C)(C)[C@H]1CC[C@H](O)CC1
- GHS category: 5

Structure (SMILES): CNC(=O)c1cc(C(O)CNC(C)(C)CCN2C(=O)OC(C)(C)c3ccccc32)ccc1O (centres undefined)
- GHS category: 4

Structure (SMILES): CCC=CCC=CCC=CCC=CCCCCC(=O)OCC
- GHS category: 5

Structure (SMILES): C=COCCCN
- GHS category: 4

Structure (SMILES): Cc1cccc(C)c1OP(=O)(Oc1cccc(OP(=O)(Oc2c(C)cccc2C)Oc2c(C)cccc2C)c1)Oc1c(C)cccc1C
- GHS category: 5

Structure (SMILES): Cn1c2cc(C(F)(F)F)ccc2c2oc(C(=O)NCCCN3CCCCC3)cc21
- GHS category: 4

Structure (SMILES): COC(=O)CCCCC(=O)OC
- GHS category: 5

Structure (SMILES): CCCCCCCCCCCCCC(=O)OCCCC
- GHS category: 5

Structure (SMILES): CN[C@@H]1[C@@H](O)[C@@H](O[C@@H]2[C@@H](O)[C@H](OC3OC(CN)=CCC3N)[C@@H](N)C[C@H]2N)OC[C@]1(C)O (some centres undefined)
- GHS category: 5

Structure (SMILES): CC(C)CC(=O)O[C@@H]1C[C@@H]2CC[C@@]1(C)C2(C)C (racemic)
- GHS category: 5

Structure (SMILES): c1ccc2oc(C3(Cn4cncn4)OCCCO3)cc2c1
- GHS category: 4

Structure (SMILES): CC1CC(OC(=O)C(Oc2ccc(Cl)cc2)C(C)C)CC(C)(C)C1 (centres undefined)
- GHS category: 5

Structure (SMILES): CCOC(=O)C(=O)Nc1cc(OC)ncn1
- GHS category: 4

Structure (SMILES): CCOC(=O)COc1cc(-c2nn(C)c(OC(F)F)c2Cl)c(F)cc1Cl
- GHS category: 5

Structure (SMILES): CCCCCCCCCCCCCCCNP1(=S)OCc2cc([N+](=O)[O-])ccc2O1 (centres undefined)
- GHS category: 3

Structure (SMILES): NC[C@H]1O[C@H](O[C@H]2[C@H](O)[C@@H](O[C@H]3O[C@H](CO)[C@@H](O)[C@H](N)[C@H]3O)[C@H](N)C[C@@H]2N)[C@H](O)[C@@H](O)[C@@H]1O
- GHS category: 5

Structure (SMILES): C[Si](C)(CCCN)N1CCC[Si]1(C)C
- GHS category: 4

Structure (SMILES): CNC(=O)C(=NNc1ccc(C)cc1)C(C)=O
- GHS category: 5

Structure (SMILES): CCCC(=O)Nc1ccc(Cc2ccccn2)c([N+](=O)[O-])c1
- GHS category: 4

Structure (SMILES): NS(=O)(=O)c1cc(C(=O)NN2C[C@H]3[C@H]4CCC(C4)[C@H]3C2)ccc1Cl
- GHS category: 5

Structure (SMILES): CC1=C(/C=C/C(C)=C/C=C/C(C)=C/C=C/C=C(C)/C=C/C=C(C)/C=C/C2=C(C)CCCC2(C)C)C(C)(C)CCC1
- GHS category: 5

Structure (SMILES): CC1(C)CCC(=Cc2ccc(Cl)cc2)C1(O)Cn1cncn1 (centres undefined)
- GHS category: 5

Structure (SMILES): Clc1ccccc1-c1nnc(-c2ccccc2Cl)nn1
- GHS category: 5

Structure (SMILES): CCOc1ccc(Cc2cc([C@@H]3O[C@H](COC(C)=O)[C@@H](OC(C)=O)[C@H](OC(C)=O)[C@H]3OC(C)=O)ccc2Cl)cc1
- GHS category: 5

Structure (SMILES): CCOC(=O)[C@H](CCc1ccccc1)N[C@H]1CCc2ccccc2N(CC(=O)O)C1=O
- GHS category: 5

Structure (SMILES): Nc1ccc2oc(N)nc2c1
- GHS category: 4

Structure (SMILES): CCCOc1nn(-c2cccc(C(F)(F)F)c2)c2ncccc12
- GHS category: 4

Structure (SMILES): CC(C)OP(=O)(O)Oc1ccccc1
- GHS category: 5

Structure (SMILES): Cc1ccc(C(=O)NS(=O)(=O)c2ccc(N)cc2)cc1C
- GHS category: 5

Structure (SMILES): Oc1cc(O)ncn1
- GHS category: 5

Structure (SMILES): Cc1cc(Cl)ccc1-n1c(C)nc2cccc(Cl)c2c1=O
- GHS category: 5

Structure (SMILES): Cc1ccc2oc(C3(Cn4ccnc4)OCCO3)cc2c1
- GHS category: 4

Structure (SMILES): CC(C)CCCCCCCCCCCCCCCOC(=O)CCCCCCCCCCCCCCC(C)C
- GHS category: 5

Structure (SMILES): O=[N+]([O-])c1ccc(OCC2CO2)cc1 (centres undefined)
- GHS category: 5

Structure (SMILES): Cc1cccc(OC(=O)c2cc(Cl)ccc2OC(N)=O)c1
- GHS category: 5

Structure (SMILES): CCCCCCCCCCCCCCCCCC(=O)OCC(COC(=O)CCCCCCCCCCCCCCCCC)OC(=O)CCCCCCCCCCCCCCCCC
- GHS category: 5

Structure (SMILES): O=C1NC(=O)C(=c2[nH]c(=C3C(=O)NC(=O)NC3=O)c3ccccc23)C(=O)N1
- GHS category: 5

Structure (SMILES): CN1C(C(=O)Nc2ccccn2)=C(OP2(=O)OCCCO2)c2sc(Cl)cc2S1(=O)=O
- GHS category: 2

Structure (SMILES): CCC(C)n1ncn(-c2ccc(N3CCN(c4ccc(O)cc4)CC3)cc2)c1=O (centres undefined)
- GHS category: 5

Structure (SMILES): O=C(O)C(=O)C(O)C(O)C(O)CO (centres undefined)
- GHS category: 5

Structure (SMILES): COc1c(Cl)ccc(B(O)O)c1F
- GHS category: 5

Structure (SMILES): O=C(O)CCCCCNc1nc(NCCCCCC(=O)O)nc(NCCCCCC(=O)O)n1
- GHS category: 5

Structure (SMILES): COc1ccccc1OCCNCC(O)COc1cccc2[nH]c3ccccc3c12 (centres undefined)
- GHS category: 5

Structure (SMILES): CSC(C)=NOC(=O)N(C)SN(C)C(=O)Oc1ccc(Sc2ccc(OC(=O)N(C)SN(C)C(=O)ON=C(C)SC)cc2)cc1
- GHS category: 4

Structure (SMILES): CCC(CO)(CO)C(=O)O
- GHS category: 5

Structure (SMILES): Nc1ccc(N=Nc2ccc(N=Nc3c(S(=O)(=O)O)cc4cc(S(=O)(=O)O)c(N=Nc5ccc(N=Nc6ccc(N)cc6N)cc5)c(O)c4c3N)cc2)c(N)c1
- GHS category: 5

Structure (SMILES): Brc1c(Br)c(Br)c(-c2c(Br)c(Br)c(Br)c(Br)c2Br)c(Br)c1Br
- GHS category: 5

Structure (SMILES): CCCCC1(CC)COC(Cn2cncn2)(c2cc3ccccc3o2)OC1 (centres undefined)
- GHS category: 4

Structure (SMILES): CCOC[C@H]1CO[C@@](Cn2ccnc2)(c2cc3cc(Cl)cc(Cl)c3o2)O1
- GHS category: 4

Structure (SMILES): COc1ccc([C@@H]2Sc3ccccc3NC(=O)[C@@H]2O)cc1
- GHS category: 5

Structure (SMILES): Cc1cccc(OC(=O)c2ccc(Cl)cc2OC(N)=O)c1
- GHS category: 5

Structure (SMILES): CCCCCCCC(=O)N(CCO)CCO
- GHS category: 5

Structure (SMILES): COc1cc2c(cc1OC)C(c1ccccc1Cl)N(c1ccccc1)CC2 (centres undefined)
- GHS category: 4

Structure (SMILES): CC1=C(C/C=C(\C)CCC[C@H](C)CCC[C@H](C)CCCC(C)C)C(=O)c2ccccc2C1=O
- GHS category: 5

Structure (SMILES): Cc1cc(C)nc(NC(=O)NS(=O)(=O)c2ccccc2C(=O)OC2COC2)n1
- GHS category: 5

Structure (SMILES): CC=Cc1ccc(OCCCCC)c(OC)c1
- GHS category: 5

Structure (SMILES): CC(=O)OCCCCCCCCCOC(C)=O
- GHS category: 5

Structure (SMILES): O=P(OCC(CBr)(CBr)CBr)(OCC(CBr)(CBr)CBr)OCC(CBr)(CBr)CBr
- GHS category: 5

Structure (SMILES): N[C@@H](CC(=O)N1CCn2c(nnc2C(F)(F)F)C1)Cc1cc(F)c(F)cc1F
- GHS category: 5

Structure (SMILES): CCOP(Oc1c(C)cc(C(C)(C)C)cc1C(C)(C)C)Oc1c(C)cc(C(C)(C)C)cc1C(C)(C)C
- GHS category: 5

Structure (SMILES): CCOC(=O)C1CN(C)C2CCCC(C)N2C1=O (centres undefined)
- GHS category: 5

Structure (SMILES): CC(=O)CCC=C(C)CCC=C(C)C
- GHS category: 5

Structure (SMILES): COC1[C@@H](O[C@@H]2O[C@H](C)[C@@H](O[C@H]3C[C@@](C)(O)[C@H](OC(=O)CC(C)C)[C@H](C)O3)[C@H](N(C)C)[C@H]2O)[C@@H](CC=O)C[C@@H](C)[C@@H](O)C=CC=CC[C@@H](C)OC(=O)C[C@H]1OC(C)=O (some centres undefined)
- GHS category: 5

Structure (SMILES): CCCc1c(Cc2ccc(-c3ccccc3-c3nn[nH]n3)cc2)c(N2CCCC2)nc2ncnn12
- GHS category: 4
